In patent US20210113522A1, “COUMARIN DERIVATIVE AS ANTI-ASTHMATIC AGENT, PHARMACEUTICAL COMPOSITION THEREOF, ITS PREPARATION AND USE” (I-NOVA MEDICINSKA ISTRAZIVANJA D.O.O., priority 2017, published 2021):

Columns and labels:
Assay type in all cases: cell-based
L929 = experiment: MTT cytotoxicity / cell survival in murine fibroblast line L929
Description: (§1) Cytotoxicity of compound 1 was determined through the study of cell growth and viability by the methods of determination of maximal non-toxic concentration (MNC) and concentration required for cell viability by 50% (CC50). […] Cytotoxic concentration at 50% (CC50) was defined as the concentration of the test substance 1 at which 50% of the cells die as a result of toxicity of the test substance.
(§2) Evaluation of cytotoxicity was an important part of the assessment of anti-asthmatic activity of compound 1 since its beneficial therapeutic effect at asthma and other inflammatory respiratory diseases should be selective with little or no effects on the metabolism of host cells. The study of cytotoxicity of compound 1 was performed on two types of cell lines of murine fibroblasts L20B and L929 from European collection of cell cultures (ECACC).
(§3) Cell viability was estimated by a modification of the 3-(4,5-dimethylthiazol-2-yl)-2,5-diphenyltetrazolium bromide (MTT) assay which is one of the most frequently used methods for measuring cell proliferation and cytotoxicity; see literature reference 12: • 12) T. Mosmann: Rapid colorimetric assay for cellular growth and survival: Application to proliferation and cytotoxicity assays, J. Immunol. Methods 65 (1983) 55-63.
(§4) Cell viability was reported as the percentage (%) of viable cells in the wells treated with different concentrations of the test compound 1, compared to the control cells untreated with the substance. Maximal non-toxic concentration (MNC) and cytotoxic concentration for 50% of cells (CC50) were calculated from the constructed “dose-cellular survival” curve.
(§5) Cytotoxicity of compound 1 was determined through the study of cell growth and viability by the methods of determination of maximal non-toxic concentration (MNC) and concentration required for cell viability by 50% (CC50).
(§6) The compound 1 (Mw=410.02) under study were first dissolved in DMSO (Sigma-Aldrich) to a concentration of 0.1 mol/L (0.1 M) as a stockade later diluted in cell growth medium Dulbecco's Modified Eagle Medium (DMEM; Sigma-Aldrich) with 2% heat inactivated fetal bovine serum.
(§7) The study of cytotoxicity of compound 1 was performed on two types of murine fibroblasts cell lines: L20B and L929 from European collection of cell cultures (ECACC). Cells were routinely maintained as adherent cell cultures in DMEM medium and containing 10% Fetal bovine serum (FBS; Gibco), 2 mM L-glutamine (Sigma-Aldrich), 100 U/mL penicillin G sodium (Sigma-Aldrich), 100 μg/mL streptomycin sulphate (Sigma-Aldrich) at 37° C. in a humidified air incubator containing 5% carbon dioxide (CO2). Cultivation of the cells was continued with direct monitoring every two or three days using a phase contrast microscope. The cells are harvested in 1× trypsin/EDTA solution (Sigma-Aldrich). Cells were passages 1:3-1:5 at a density around 5-6·10^4 cells/mL, while the passage was re-suspended repeatedly.
(§8) Methods of determining cell growth, cell viability, maximal non-toxic concentration (MNC) and concentrations, required cell viability by 50% (CC50): Cell viability was estimated by a modification of the MTT [3-(4,5-dimethylthiazol-2-yl)-2,5-diphenyltetrazolium bromide] assay; see literature reference 12. The MTT reduction assay is one of the most frequently used methods for measuring cell proliferation and cytotoxicity. The intensity of colour (measured spectrophotometrically) of the MTT formazan produced by living, metabolically active cells by measuring the activity of succinate dehydrogenase, mostly located in mitochondria was proportional to the number of live cells present. MTT was a yellow water-soluble tetrazolium dye that was reduced by live, but not dead cells to a purple formazan product that was insoluble in aqueous solutions.
(§9) Each cell line was plated at an appropriate density (7.5·10^3 cells/well for L20B cell culture and 4·10^4 cells/well for L929 cell culture) in 96-well plates (Costar Corning; USA) for 24 h. […]

[1] = as above; details: mouse; L929, 48 h; read-out: CC50 (cytotoxic concentration for 50% cells)
Description: as §1, §2, §3, §4, §5, §6, §7, §8, §9

[2] = MTT cytotoxicity / cell survival in murine fibroblast line L20B; details: mouse; L20B, 48 h; read-out: CC50 (cytotoxic concentration for 50% cells)
Description: as §1, §2, §3, §4, §5, §6, §7, §8, §9

L20B = experiment: as above
Description: as §1, §2, §3, §4, §5, §6, §7, §8, §9

Structure (SMILES): O=c1oc2cc(O)cc(O)c2c(O)c1-c1coc2c1c(=O)oc1cc(O)cc(O)c12 [Compound 1, 7,9-dihydroxy-3-(4,5,7-trihydroxy-2-oxo-2H-chromene-3-yl)-4H-furo[3,2-c]chromen-4-one]
- Cell survival, cell culture L929 (L929; 0.0001 mg/mL of 1, 48 h): 100.6%
- Cell survival, cell culture L929 (L929; 0.001 mg/mL of 1, 48 h): 98.8%
- Cell survival, cell culture L929 (L929; 0.01 mg/mL of 1, 48 h): 95.3%
- Cell survival, cell culture L929 (L929; 0.05 mg/mL of 1, 48 h): 87.1%
- Cell survival, cell culture L929 (L929; 0.1 mg/mL of 1, 48 h): 89.3%
- Cell survival, cell culture L929 (L929; 0.5 mg/mL of 1, 48 h): 83.2%
- Cell survival, cell culture L929 (L929; 1 mg/mL of 1, 48 h): 76.1%
- Cell survival, cell culture L929 (L929; 5 mg/mL of 1, 48 h): 64.9%
- Cell survival, cell culture L929 (L929; 10 mg/mL of 1, 48 h): 50.5%
- Cytotoxicity against L929 relative to L20B according to MNC values (L929; 48 h): 10 ×
- Cytotoxicity against L929 versus L20B according to CC50 values (L929; 48 h): the same cytotoxicity
- Cytotoxicity (overall, in words) (L929; L929, 48 h): low cytotoxicity
- Typical cytopathology characterizing the toxic effect (microscopic morphology of monolayers) (L929; L929, 48 h, 0.0001-10 mg/mL): not registered
- CC50 at 48 h [1]: 10 mM
- CC50 at 48 h [2]: 9 mM
- Cell survival, cell culture L20B (L20B; 0.0001 mg/mL of 1, 48 h): 103.3%
- Cell survival, cell culture L20B (L20B; 0.001 mg/mL of 1, 48 h): 99.7%
- Cell survival, cell culture L20B (L20B; 0.01 mg/mL of 1, 48 h): 94.5%
- Cell survival, cell culture L20B (L20B; 0.05 mg/mL of 1, 48 h): 91.3%
- Cell survival, cell culture L20B (L20B; 0.1 mg/mL of 1, 48 h): 88.2%
- Cell survival, cell culture L20B (L20B; 0.5 mg/mL of 1, 48 h): 85.6%
- Cell survival, cell culture L20B (L20B; 1 mg/mL of 1, 48 h): 72.4%
- Cell survival, cell culture L20B (L20B; 5 mg/mL of 1, 48 h): 60.2%
- Cell survival, cell culture L20B (L20B; 10 mg/mL of 1, 48 h): 48.5%
- Cytotoxicity (overall, in words) (L20B; L20B, 48 h): low cytotoxicity
- Typical cytopathology characterizing the toxic effect (microscopic morphology of monolayers) (L20B; L20B, 48 h, 0.0001-10 mg/mL): not registered
